Source: US20260306460A1, “COMPOSITION FOR REMOVING AND INHIBITING SENESCENT CELLS, AND USES THEREOF” (LIFECEUTIX CO., LTD., priority 2023, published 2026)

Key:
senescent foreskin cells = experiment: Survival of senescent human cells treated with supernatant (secreted fluid) from death-induced cells, Example 13; type: cell-based; conditions: Table 8; supernatant from dying senescent cells treated at 30, 90 or 270 μM (as Example 11); senescent treated cells
[1] = test system: bleomycin-induced pulmonary fibrosis mice; experiment: Bleomycin-induced pulmonary fibrosis mice, Example 31, Table 56; type: in vivo, mouse; conditions: untreated = 100%
Procedure, shortened: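 Mice with bleomycin-induced pulmonary fibrosis, untreated or given test compound, with vehicle-only controls. Lung tissue collected for RNA extraction and qRT-PCR analysis.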

[2] = test system: HMGN1 secreted from senescent A549 cells; experiment: HMGN1 secretion (ELISA) from senescent A549 cancer cells, Example 12; type: cell-based, human; conditions: senescent untreated = 100%; 30 μM; 90 μM for LX-305, 905, 1302, 1601, 1603, 2003, 2702, 2901, 3106; 270 μM for LX-1103, 2005, 2007;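 also: A549 cells made senescent by doxorubicin exposure, with DMSO-treated cells serving as the non-senescent control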
Description: Cells were treated with doxorubicin or control (DMSO) and cultured.

[3] = test system: carbon tetrachloride-induced liver fibrosis mice; experiment: Carbon tetrachloride-induced liver fibrosis mice, Example 31, Table 57; type: in vivo, mouse; conditions: CCl4-induced liver fibrosis mice, untreated = 100%
Procedure, shortened: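 Mice with induced hepatic fibrosis received either the test compound or, as controls, an equal volume of vehicle solution alone. Once dosing ended, liver tissue was harvested and total RNA was isolated. cDNA was synthesized from this RNA, and quantitative RT-PCR was run on it to measure hepatic mRNA levels of the fibrosis- and senescence-related genes.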

naturally aged mice = experiment: Anti-aging evaluation in naturally aged mice, Example 31, Table 55; type: in vivo, mouse; conditions: for Femur Ctsk mRNA / Kidney Agtr1a mRNA / Liver IL6 mRNA / Liver MMP3 mRNA / Liver p16 mRNA / Open Field Test Time in Center: untreated = 100%; for Heart Sur2a mRNA / Joint Col2a1 mRNA / Skin Col1a1 mRNA / Skin SDF1 mRNA: untreated = 1.0; for Muscle Mass: untreated 0.64 g; for Fat Mass: untreated 0.82 g; for Cataract incidence: untreated 83%;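 as to all read-outs here: Vehicle-dosed control mice received solution alone at matching volume, values compare test-compound-treated aged mice against that control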
senescent human cells = experiment: Viability of doxorubicin-induced senescent human cells (CellTiter-Glo), Example 11; type: cell-based; conditions: excessive concentrations (1 or 20 mM)
Description: Cells in which senescence was induced by treatment with doxorubicin were treated with the test compound at designated concentrations and measured using the CellTiter-Glo Luminescent Cell Viability Assay (Promega).
After 3 days, cell viability was measured using CellTiter-Glo Luminescent Cell Viability Assay (Promega) or light microscopy.

Row | Structure (SMILES) | Survival (senescent foreskin cells) | Lung p16 mRNA [1] | Col1a1 mRNA [1] | HMGN1 [2] | Liver p16 mRNA [3] | Col1a1 mRNA [3] | Femur Ctsk mRNA (naturally aged mice) | Heart Sur2a mRNA (naturally aged mice) | Joint Col2a1 mRNA (naturally aged mice) | Kidney Agtr1a mRNA (naturally aged mice) | Liver IL6 mRNA (naturally aged mice) | Liver MMP3 mRNA (naturally aged mice) | Liver p16 mRNA (naturally aged mice) | Open Field Test Time in Center (naturally aged mice) | Skin Col1a1 mRNA (naturally aged mice) | Skin SDF1 mRNA (naturally aged mice) | Muscle Mass (naturally aged mice) | Fat Mass (naturally aged mice) | Cataract incidence (naturally aged mice) | removal of senescent cells (senescent human cells)
1 | CCc1nc(C(N)=O)c(Nc2ccc(N3CCC(N4CCN(C)CC4)CC3)c(OC)c2)nc1NC1CCOCC1 [LX-3303, Gilteritinib] | 53.5 | 68 (±6.9) % | 78 (±5.1) % | 239% | 62 (±4.9) % | 65 (±6.2) % | 76% | 1.9 fold | 2.1 fold | 69% | 83% | 73% | 63% | 186% | 1.2 Fold | 1.7 fold | 0.72 g | 1.08 g | 61% | 
2 | OO [H2O2] |  |  |  |  |  |  |  |  |  |  |  |  |  |  |  |  |  |  |  | hardly removed
3 | COc1cc(OC)cc(N(CCNC(C)C)c2ccc3ncc(-c4cnn(C)c4)nc3c2)c1 [LX-1903, Erdafitinib] | 62.8 | 73 (±6.6) % | 70 (±9.3) % |  | 67 (±9.2) % | 62 (±6.9) % | 77% | 1.4 fold | 1.7 fold |  | 58% | 75% | 69% | 161% | 1.2 Fold | 1.4 fold | 0.69 g | 0.97 g | 79% | 
4 | Cc1oncc1C(=O)Nc1ccc(C(F)(F)F)cc1 [LX-1603, Leflunomide] | 97.5 | 78 (±6.1) % | 48 (±2.5) % | 163% | 67 (±3.5) % | 54 (±2.9) % | 64% | 2.0 fold | 2.3 fold | 77% | 61% | 73% | 74% |  | 2.6 Fold | 1.7 fold | 0.69 g | 0.92 g | 78% | 
5 | CCn1c(C#CCNc2ccccc2)cc2cc(CNC)ccc21 [LX-905] | 46.5 | 67 (±5.5) % | 59 (±13.3) % | 217% | 76 (±6.0) % | 71 (±7.5) % | 62% | 2.4 fold | 2.3 fold | 52% | 38% | 76% | 67% | 241% | 2.0 Fold | 1.5 fold | 0.69 g | 1.08 g | 65% | 
6 | O=C(NCc1ccncc1)C12CC3CC(C1)CC(c1ccc(Cl)cc1)(C3)C2 [LX-3106, Opaganib] | 72.6 | 67 (±4.3) % | 77 (±3.7) % | 236% | 81 (±6.5) % | 71 (±5.4) % | 76% | 1.6 fold | 2.0 fold | 83% | 71% | 85% | 76% | 193% | 1.3 Fold | 1.3 fold | 0.72 g | 0.88 g | 71% | 
7 | NCC(=O)CCC(=O)O [LX-1103, 5-Aminolevulinic acid] | 101.8 | 73 (±3.2) % | 76 (±5.3) % | 158% | 77 (±3.5) % | 60 (±6.9) % | 78% | 2.4 fold | 2.8 fold | 76% | 70% | 68% | 47% | 183% | 2.3 Fold | 1.7 fold | 0.68 g | 0.89 g | 54% | 
8 | C[C@H](N)C(=O)N1C[C@H](CCCB(O)O)[C@](N)(C(=O)O)C1 [LX-3107, Numidargistat] | 62.1 | 81 (±3.9) % | 68 (±5.1) % | 267% | 80 (±3.6) % | 69 (±8.0) % | 81% | 1.7 fold | 1.1 fold | 75% | 49% | 68% | 54% | 167% | 1.2 Fold | 1.4 fold | 0.67 g | 0.99 g | 65% | 
9 | CC(=O)N[C@@H](Cc1c[nH]c2ccccc12)C(=O)N[C@@H](CCC(=O)C=[N+]=[N-])C(=O)OC(C)C [LX-3201, Sirpiglenastat] | 55.2 | 77 (±5.9) % | 73 (±3.8) % | 309% | 71 (±9.4) % | 82 (±8.2) % | 80% | 2.1 fold | 1.7 fold | 78% | 71% | 64% | 80% | 171% | 1.6 Fold | 2.0 fold | 0.71 g | 1.06 g | 76% | 
10 | CC/C=C\C/C=C\C/C=C\C/C=C\C/C=C\C/C=C\CCC(=O)O [LX-2702, Docosahexaenoic acid] | 68.6 | 53 (±2.8) % | 43 (±5.9) % | 237% | 46 (±3.2) % | 53 (±6.1) % | 50% | 2.3 fold | 2.8 fold | 57% | 54% | 73% | 80% | 211% | 1.8 Fold | 2.7 fold | 0.72 g | 1.13 g | 66% | 
11 | CC(=O)N[C@@H](CS)C(=O)O [NAC, N-acetyl cysteine] |  |  |  |  |  |  |  |  |  |  |  |  |  |  |  |  |  |  |  | hardly removed
